Laboratory results: ChEMBL document CHEMBL4296182, “CO-ADD screening of NIH NCI Diversity Set V”
Values after ≈ are worked out from the molar mass of the structure shown.

Experiments:
[1] = test system: Pseudomonas aeruginosa; assay: microbe, parasite or virus in culture; conditions: ATCC 27853, 18 h, ASSAY_TEST Inhibition of Bacterial Growth, detection method Absorption (OD600), MEDIA CAMHB, plate type 384well, NBS, CORNING #3640
Description: Antibacterial activity against Pseudomonas aeruginosa ATCC 27853 (CO-ADD:GN_042); MIC in CAMBH media using NBS plates, by OD(600)

[2] = test system: HEK293; assay: cells; format: functional; conditions: Homo sapiens, ATCC CRL1573, HEK293; ASSAY_TEST Inhibition of Cell Viability; detection method Resazurin; Fluorescence (ex560/em590); MEDIA DMEM with 10% FBS; plate type 384well; TC; CORNING #3712; time 18 hr
[3] = test system: Klebsiella pneumoniae; assay: microbe, parasite or virus in culture; conditions: ATCC 700603, 18 h, ASSAY_TEST Inhibition of Bacterial Growth, detection method Absorption (OD600), MEDIA CAMHB, plate type 384well, NBS, CORNING #3640
Description: Antibacterial activity against Klebsiella pneumoniae MDR ATCC 70063 (CO-ADD:GN_003); MIC in CAMBH media using NBS plates, by OD(600)

[4] = test system: Candida albicans; assay: microbe, parasite or virus in culture; conditions: ATCC 90028, ASSAY_TEST Inhibition of Fungal Growth, detection method Absorption (OD530), plate type 384well, NBS, CORNING #3640
Description: Antifungal activity against Candida albicans ATCC 90028 (CO-ADD:FG_001); MIC in YNB media using NBS plates, by OD630

[5] = test system: Acinetobacter baumannii; assay: microbe, parasite or virus in culture; conditions: ATCC 19606, 18 h, ASSAY_TEST Inhibition of Bacterial Growth, detection method Absorption (OD600), MEDIA CAMHB, plate type 384well, NBS, CORNING #3640
Description: Antibacterial activity against Acinetobacter baumannii ATCC 19606 (CO-ADD:GN_034); MIC in CAMBH media using NBS plates, by OD600

[6] = test system: Staphylococcus aureus; assay: microbe, parasite or virus in culture; conditions: ATCC 43300, 18 h, ASSAY_TEST Inhibition of Bacterial Growth, detection method Absorption (OD600), MEDIA CAMHB, plate type 384well, NBS, CORNING #3640
Description: Antibacterial activity against Staphylococcus aureus MRSA ATCC 43300 (CO-ADD:GP_020); MIC in CAMBH media, using NBS plates, by OD(600)

[7] = test system: Escherichia coli; assay: microbe, parasite or virus in culture; conditions: ATCC 25922, 18 h, ASSAY_TEST Inhibition of Bacterial Growth, detection method Absorption (OD600), MEDIA CAMHB, plate type 384well, NBS, CORNING #3640
Description: Antibacterial activity against Escherichia coli ATCC 25922 (CO-ADD:GN_001); MIC in CAMBH media using NBS plates, by OD(600)

[8] = test system: Cryptococcus neoformans
Description: Antifungal activity against Cryptococcus neoformans H99 ATCC 208821 (CO-ADD:FG_002); MIC in YNB media using NBS plates, by Resazurin OD(600-570)

Row | SMILES | MIC [1] | CC50 [2] | MIC [3] | MIC [4] | MIC [5] | MIC [6] | MIC [7] | MIC [8]
1 | O=C(Nc1cccc(-c2nc3ccccc3[nH]2)c1)c1ccc(C(=O)Nc2cccc(-c3nc4ccccc4[nH]3)c2)cc1 | > 10 µM | > 10 µM | > 10 µM | > 10 µM | > 10 µM | > 10 µM | > 10 µM | > 10 µM
2 | O=C(O)c1[nH]c(=O)[nH]c(=O)c1F | > 10 µM | > 10 µM | > 10 µM | > 10 µM | > 10 µM | > 10 µM | > 10 µM | > 10 µM
3 | CC(C)c1ccc2c(c1)CCC1C(C)(CN)CCCC21C (stereo not drawn) | > 10 µM | 8.3 µM | > 10 µM | > 10 µM | > 10 µM | > 10 µM | > 10 µM | > 10 µM
4 | O=[N+]([O-])c1cnc(Sc2ccncn2)s1 | > 10 µM | > 10 µM | > 10 µM | 5 µM (≈ 1.2 µg/mL) | > 10 µM | > 10 µM | > 10 µM | 5 µM (≈ 1.2 µg/mL)
5 | O=Nc1c(-c2cccc([N+](=O)[O-])c2)nc2ncccn12 | > 10 µM | > 10 µM | > 10 µM | 0.625 µM (≈ 0.168 µg/mL) | > 10 µM | 0.312 µM (≈ 0.0841 µg/mL) | > 10 µM | 2.5 µM (≈ 0.673 µg/mL)
6 | O=C(Nc1ccc(C2=NCCN2)cc1)c1ccc(Cl)c(C(=O)Nc2ccc(C3=NCCN3)cc2)c1 | > 10 µM | > 10 µM | > 10 µM | > 10 µM | > 10 µM | > 10 µM | > 10 µM | > 10 µM
7 | CN1CCN(c2ccc([N+](=O)[O-])c3no[n+]([O-])c23)CC1 | > 10 µM | 0.755 µM | > 10 µM | > 10 µM | > 10 µM | 2.5 µM (≈ 0.698 µg/mL) | > 10 µM | > 10 µM
8 | O=[N+]([O-])c1cc(F)c2cccnc2c1O | > 10 µM | > 10 µM | > 10 µM | 10 µM (≈ 2.08 µg/mL) | > 10 µM | > 10 µM | > 10 µM | 10 µM (≈ 2.08 µg/mL)
9 | O=[N+]([O-])c1ccc(-c2ccccc2)c([As](=O)(O)O)c1 | > 10 µM | > 10 µM | > 10 µM | > 10 µM | > 10 µM | > 10 µM | > 10 µM | > 10 µM
10 | Cc1ccc(C=C2C(Cl)=C(Cl)C(Cl)=C2Cl)cc1 | > 10 µM | > 10 µM | > 10 µM | > 10 µM | > 10 µM | > 10 µM | > 10 µM | > 10 µM
11 | c1ccc2nc(OCCN3CC3)ccc2c1 | > 10 µM | > 10 µM | > 10 µM | > 10 µM | > 10 µM | > 10 µM | > 10 µM | > 10 µM
12 | CSc1nc(C)c(Br)c(N2CC2)n1 | > 10 µM | > 10 µM | > 10 µM | > 10 µM | > 10 µM | > 10 µM | > 10 µM | > 10 µM
13 | Sc1ncnc2c1ncn2C1CCCO1 (stereo not drawn) | > 10 µM | > 10 µM | > 10 µM | > 10 µM | > 10 µM | > 10 µM | > 10 µM | > 10 µM
14 | O=Cc1ccc(O)c2ncccc12 | > 10 µM | > 10 µM | > 10 µM | 0.625 µM (≈ 0.108 µg/mL) | > 10 µM | > 10 µM | > 10 µM | 1.25 µM (≈ 0.216 µg/mL)
15 | O=C(c1cccnc1)C1Cc2ccccc2C1=O (stereo not drawn) | > 10 µM | > 10 µM | 5 µM (≈ 1.19 µg/mL) | > 10 µM | > 10 µM | > 10 µM | > 10 µM | > 10 µM
16 | Oc1c(CN2CCN(c3ccccc3)CC2)cc(Br)c2cccnc12 | > 10 µM | > 10 µM | > 10 µM | > 10 µM | > 10 µM | > 10 µM | > 10 µM | > 10 µM

Row | SMILES | MIC [1] | CC50 [2] | MIC [3] | MIC [4] | MIC [5] | MIC [6] | MIC [7] | MIC [8]
17 | C1C2CC3C1C3/C2=N\N=C1/C2CC3C(C2)C13 | > 10 µM | > 10 µM | > 10 µM | > 10 µM | > 10 µM | > 10 µM | > 10 µM | > 10 µM
18 | C#CC(c1ccccc1)(c1ccccc1)n1ccnc1 | > 10 µM | > 10 µM | > 10 µM | > 10 µM | > 10 µM | > 10 µM | > 10 µM | > 10 µM
19 | O=C(Nc1ccc(Nc2ccncc2)cc1)c1ccc(Nc2ccnc3ccc([N+](=O)[O-])cc23)cc1 | > 10 µM | > 10 µM | > 10 µM | > 10 µM | > 10 µM | > 10 µM | > 10 µM | 2.5 µM (≈ 1.19 µg/mL)
20 | CN(C)c1n/c(=N/c2cccc(Cl)c2)ss1 | > 10 µM | > 10 µM | > 10 µM | 10 µM (≈ 2.72 µg/mL) | > 10 µM | > 10 µM | > 10 µM | > 10 µM
21 | COC1CC(C)C(OC)c2cc(O)cc(c2O)NC(=O)/C(C)=C/C=C\C(C)C(OC(N)=O)/C(C)=C\C(C)C1OC (stereo not drawn) | > 10 µM | 1.09 µM | > 10 µM | > 10 µM | > 10 µM | > 10 µM | > 10 µM | > 10 µM
22 | CCC(C)c1cnc(CC(C)C)c(=O)n1O (stereo not drawn) | > 10 µM | > 10 µM | > 10 µM | > 10 µM | > 10 µM | > 10 µM | > 10 µM | > 10 µM
23 | O=C(/C=C/c1cccnc1)c1ccccc1O | > 10 µM | > 10 µM | > 10 µM | > 10 µM | > 10 µM | > 10 µM | > 10 µM | > 10 µM
24 | COC1C(OC(=O)c2ccc(C)[nH]2)C(O)C(Oc2ccc3c(O)c(NC(=O)c4ccc(O)c(CC=C(C)C)c4)c(=O)oc3c2Cl)OC1(C)C (stereo not drawn) | 10 µM (≈ 6.97 µg/mL) | 9.55 µM | > 10 µM | > 10 µM | > 10 µM | ≤ 0.0781 µM | > 10 µM | > 10 µM
25 | Nc1nc(N)c2cc(Sc3ccc4ccccc4c3)ccc2n1 | > 10 µM | 4.64 µM | > 10 µM | > 10 µM | > 10 µM | 0.156 µM (≈ 0.0498 µg/mL) | 5 µM (≈ 1.59 µg/mL) | > 10 µM
26 | O=[N+]([O-])c1oc2ccc3ccccc3c2c1CCO | > 10 µM | 1.13 µM | > 10 µM | > 10 µM | > 10 µM | 2.5 µM (≈ 0.643 µg/mL) | 5 µM (≈ 1.29 µg/mL) | > 10 µM
27 | O=C1N=C(Nc2nc3ccccc3[nH]2)c2ccccc21 | > 10 µM | > 10 µM | > 10 µM | 10 µM (≈ 2.62 µg/mL) | > 10 µM | > 10 µM | > 10 µM | > 10 µM
28 | COC(=O)C1(F)C(=O)NC(=O)NC1OC (stereo not drawn) | > 10 µM | > 10 µM | > 10 µM | > 10 µM | > 10 µM | 5 µM (≈ 1.1 µg/mL) | > 10 µM | > 10 µM
29 | CCOC(=O)c1ccc(Nc2sc(C(=O)c3cccc([N+](=O)[O-])c3)c(N)c2C#N)cc1 | > 10 µM | > 10 µM | > 10 µM | > 10 µM | > 10 µM | > 10 µM | > 10 µM | > 10 µM
30 | SC1=NC2(CCCCCC2)NN1c1ccccc1 | > 10 µM | > 10 µM | > 10 µM | > 10 µM | > 10 µM | > 10 µM | > 10 µM | > 10 µM
31 | OC(c1cc(-c2ccc(Cl)cc2)nc2ccccc12)C1CCCCN1 (stereo not drawn) | > 10 µM | > 10 µM | > 10 µM | > 10 µM | > 10 µM | > 10 µM | > 10 µM | > 10 µM
